Common to all, as to assay type: physicochemical
A short description of series [1]: GPC assay of active ingredients (repellent tracers) in EVA collars at T0 after injection and after 7 days of stability at 50° C. The note with it: for cumulative loss: collar (C1), T0 loss plus loss after 7 days at 50° C.; for Active ingredient loss (%): EVA. As to the method:
In a 1 L beaker, 200 g of vitamin F, 160 g of Mentha pulegium essential oil, 31.2 g of eucalyptus essential oil, 8 g of lemongrass essential oil and 0.8 g of geraniol are mixed. The mixture is stirred lightly until a homogeneous liquid mixture is obtained.
3519.2 g of EVA are introduced into a cylindrical mixer preheated to 70° C. Then, the above homogeneous liquid mixture is slowly introduced. The mixture is left to be stirred gently until dry granules are obtained. 80 g of pistachio green dye are added and then mixed for 5 minutes. A compound is obtained consisting of EVA polymers loaded with 11.1% by weight of all the active ingredients combined, or 5.5% by weight of vitamin F and 5.6% by weight of repellents.
The above compound is injected into a collar 60 cm long by 1 cm wide and weighing 25 g.
The collars (C1) thus obtained were analyzed by GPC assay of the active ingredients contained in the matrix at time zero (T0) after injection, then after 7 days of stability at 50° C. in watertight-sealed packaging.
In parallel, by proceeding according to the same protocol, vitamin F was replaced by coconut oil, in the same proportions, then the corresponding collar compound (C2) was injected. The analyses by GPC assay of the collars (C2) gave the results recorded in Table 2. […]

Series [2] is described as follows: Release profile at room temperature of active ingredient incorporated at 10% into polymer matrix bracelets. Particulars: for release profile: 10% loading. How it is done: Studies carried out by the inventors have made it possible to prepare the release profiles of limonene as a function of the polymers used, namely PEBA, EVA and the bio-based polyethylene (PE) copolymer. Compounds loaded with 10% limonene were injected in a bracelet.
FIG. 1: release profile at room temperature of limonene incorporated at 10% into different polymer matrices.
10% essential oil of Eucalyptus radiata has been incorporated into an EVA polymer matrix.
FIG. 2: release profile at room temperature of Eucalyptus radiata essential oil incorporated at 10% into an EVA matrix

A short description of series [3]: In vitro release profile in plant oil from antiparasitic TPU (EPAMOULD) collar. Particulars: for release profile: bi-injected collar: one matrix 8% permethrin in 5% SANTICIZER 141, other matrix 4% deltamethrin in 22% SANTICIZER 141; for amount released after 15 days: single EPAMOULD matrix with 8% permethrin and 4% deltamethrin, both in 22% SANTICIZER 141. As to the method:
8% permethrin is solubilized in 22% of SANTICIZER 141® Then, 4% deltamethrin is added, before adding the homogeneous mixture in a single EPAMOULD® matrix.
FIG. 3: In vitro release profile in the plant oil from the pest control collar containing 8% permethrin and 4% deltamethrin, both solubilized in 22% SANTICIZER 141®
Therefore, the same amount (8%) of permethrin was solubilized in 5% SANTICIZER® 141 prior to incorporation into a EPAMOULD® matrix as above, in order to obtain a permethrin compound. In parallel, the same quantity of deltamethrin (4%) solubilized in 22% of SANTICIZER® 141 was mixed, prior to incorporation into a EPAMOULD® matrix, in order to obtain a deltamethrin compound.
The two compounds obtained are injected simultaneously in a collar using the bi-injection press as described in Example 1.
FIG. 4: In vitro release profile in plant oil of the antiparasitic collar obtained by bi-injection including a matrix containing 8% of permethrin solubilized in 5% of SANTICIZER 141® and the other matrix containing 4% of deltamethrin dissolved in 22% of SANTICIZER 141®.

[4] abbreviates: collars (C1), 5.5% Vitamin F and 5.6% repellents, at T0 after injection.
Setting [5] is: collars (C1), 5.5% Vitamin F and 5.6% repellents, at T = 7 days at 50° C., watertight-sealed packaging.
The mark [6] stands for this setting: collars (C2), 5.5% coconut and 5.6% repellents, at T0 after injection.
[7] abbreviates: collars (C2), 5.5% coconut and 5.6% repellents, at T = 7 days at 50° C.
Where [8] appears, read: PEBA bracelet loaded with 10% limonene.

Consider `CC(C)=CCC/C(C)=C/CO` [Geraniol, geraniol], for which, in series [1], the cumulative loss is on record as 36%. The “Active ingredient loss (%)” value in series [1] (setting [4]) is listed as 6%; in series [1] (collars (C1), 5.5% Vitamin F and 5.6% repellents, at T0 after injection, listed as geraniol), 6%; in series [1] (setting [5]), 30%; in series [1] (collars (C1), 5.5% Vitamin F and 5.6% repellents, at T = 7 days at 50° C., watertight-sealed packaging, listed as geraniol), 30%; in series [1] (setting [6]) it was 0%; in series [1] (setting [7]), 0%.
`CC(C)=C1CC[C@@H](C)CC1=O` [Pulegone]: the “Active ingredient loss (%)” value in series [1] (setting [4]) came to 11%; in series [1] (setting [5]), 10%; in series [1] (setting [6]), 0%; in series [1] (setting [7]), 0%.
For the compound `C=C(C)[C@H]1CC=C(C)CC1` [limonene, Limonene], the “release profile” value is “releases gradually” in series [2] (EVA matrix); “very quickly and in a significant quantity” in series [2] (PEBA bracelet); “retains” in series [2] (bio-based polyethylene (PE) copolymer bracelet). Moreover, the “amount released after 2 days” value in series [2] (setting [8]) was 70%. In addition, the “time until bracelet empty” value in series [2] (setting [8]) is 6 days. Further, the “remaining amount after 10 days” value in series [2] (incorporated at 10% into EVA matrix) was found to be 42%.
Regarding `CC1(C)[C@H](C(=O)O[C@H](C#N)c2cccc(Oc3ccccc3)c2)[C@@H]1C=C(Br)Br` [deltamethrin], in series [3], the “release profile” value is reported as “substantially similar release profile” and the “amount released after 15 days” value is recorded as 18%.
Turning to `CC(C)=CCCC(C)CC=O` (centres unmarked) [Citronellal], the cumulative loss in series [1] is on record as 50%. The “Active ingredient loss (%)” value in series [1] (setting [4]) is recorded as 12%; in series [1] (collars (C1), 5.5% Vitamin F and 5.6% repellents, at T0 after injection, listed as citronellal), 12%; in series [1] (setting [5]), 38%; in series [1] (collars (C1), 5.5% Vitamin F and 5.6% repellents, at T = 7 days at 50° C., watertight-sealed packaging, listed as citronellal), 38%; in series [1] (setting [6]), 0%; in series [1] (setting [7]), 3%. The “Active ingredient loss (%)” value in series [1] (collars (C2), 5.5% coconut and 5.6% repellents, at T = 7 days at 50° C., listed as citronellal) turned out to be 3%.
For `CC(C)=CCCC(C)CCO` (centres unmarked) [Citronellol], the cumulative loss in series [1] is 27%. Besides, the “Active ingredient loss (%)” value stood at 7% in series [1] (setting [4]); 7% in series [1] (collars (C1), 5.5% Vitamin F and 5.6% repellents, at T0 after injection, listed as citronellol); 20% in series [1] (setting [5]); 20% in series [1] (collars (C1), 5.5% Vitamin F and 5.6% repellents, at T = 7 days at 50° C., watertight-sealed packaging, listed as citronellol); 3% in series [1] (setting [6]); 3% in series [1] (collars (C2), 5.5% coconut and 5.6% repellents, at T0 after injection, listed as citronellol). Moreover, the “Active ingredient loss (%)” value in series [1] (setting [7]) was found to be 0%.
`CC12CCC(CC1)C(C)(C)O2` [Cineole]: the cumulative loss in series [1] was 16%. The “Active ingredient loss (%)” value in series [1] (setting [4]) was determined as 12%; in series [1] (collars (C1), 5.5% Vitamin F and 5.6% repellents, at T0 after injection, listed as cineole), 12%; in series [1] (setting [5]), 4%; in series [1] (collars (C1), 5.5% Vitamin F and 5.6% repellents, at T = 7 days at 50° C., watertight-sealed packaging, listed as cineole), 4%; in series [1] (setting [6]), 0%; in series [1] (setting [7]), 0%.
On to `CC1(C)C(C=C(Cl)Cl)C1C(=O)OCc1cccc(Oc2ccccc2)c1` (centres unmarked) [permethrin], for which, in series [3], the “release profile” value was “substantially similar release profile” and the “amount released after 15 days” value is given as 52%.

The values are drawn from patent US12179400B2, “Multiple-matrix monolithic moulded part for the diffusion of active ingredients and method for obtaining same” (AB7 Innovation S.A.S.U., priority 2017, dated 2024).
